The values below come from patent US10537575B2, “Phosphodiesterase inhibitors to repair brain and/or retinal injury in human newborns” (priority 2016, dated 2020).

Data set [1] in a line: Body weight and animal deaths in Vannucci rat model of term neonatal HIE. How it is done:
A well-established Vannucci rat model of term neonatal HIE, which combined a left common carotid artery ligation and a 2 hour exposure to hypoxia (8% oxygen) in 10-day-old (P10) rat pups, was used for the experiments, since this model is generally recognized to mimic the brain injuries observed in human term asphyxiated newborns. Briefly, the 10-day-old male Long-Evans rat pups were weighed and then deeply anesthetized with an intraperitoneal injection of fentanyl (0.2 mg/kg) and midazolam (1 mg/kg) to the point of unresponsiveness to noxious stimulation. Lidocaine-prilocaine cream (EMLA®; AstraZeneca Inc.) was applied to the ventral neck skin 30 minutes before surgery. The skin was cleaned with 2% chlorhexidine solution followed by 70% alcohol. A vertical incision was made along the ventral surface of the neck. The left common carotid artery was located, isolated, and then ligated with a single tight suture. Following the unilateral ligation, the skin incision was closed with an adhesive (n-butyl cyanoacrylate; 3 M VetBond Tissue Adhesive®; 3 M USA). The anesthesia was reversed with an intraperitoneal injection of naloxone (0.1 mg/kg) and flumazenil (1 mg/kg). […] For each rat pup, anesthesia time and surgical time were kept to a minimal time of less than 5-10 minutes. The pups were allowed to recover for approximately 1.5 h after surgery and then were placed in a sealed hypoxia chamber (Plastic Concepts, North Billerica, USA). The sealed chamber was infused with nitrogen until a level of 8% oxygen was reached, which was maintained for 2 h (oxygen analyzer model 600, Engineered Systems & Designs, Newark, Del.). The pups were allowed to recover for 30 minutes and then were returned to their cages with the mother. The rats undergoing the whole procedure were considered as the hypoxic-ischemic (HI) group (n=10-12 animals/groups). Sham operated rat pups (identical procedure as the HI group, but not the ligation and hypoxia) served as the control group (n=10-12 animals/groups). The sample size of the current study was a sample size of convenience, subject to restrictions imposed by the institutional ethics committee that reviewed it, and based on the principles of the 3Rs (replacement, reduction, and refinement). Sham rat pups received the same sedation as HI rat pups permitting to control for the effect of sedation on the brain. Normal body temperature of both sham and HI rat pups, while they were separated from the mother, was maintained during the whole procedure (i.e., surgery±hypoxia) using warming blankets (Cincinnati Sub-Zero, Cincinnati, USA).

Data set [2] deals with Long-Evans rat pups (neonatal HI). Briefly: Hippocampal injury and neuroinflammation after neonatal HI. The format is in vivo. The following applies: P30. How it is done: Neonatal HI was induced in male Long-Evans rat pups at postnatal day 10 (P10) by left common carotid ligation followed by 2-hour exposure to 8% oxygen. Sham operated rat pups served as control. […] At P30, rats were sacrificed and their brains extracted. CA1, CA3 and dentate gyrus (DG) areas of the ipsilateral hippocampus were analyzed for microgliosis (Iba1) and astrogliosis (GFAP), neuronal number (NeuN), and vascular density (collagen IV).

Data set [3] has as its system Sprague-Dawley rats (rat model of ROP). Briefly: Flash electroretinograms in rat model of ROP (hyperoxia). In kind it is in vivo. The following applies: sildenafil 50 mg/kg per os twice daily P15 to P21, P29, p<0.05. As to the method: (§1) Sprague-Dawley rats were exposed to hyperoxia (i.e., 80% oxygen) interrupted by three 0.5-hour periods of normoxia (i.e., 21% oxygen) per day or room air only (i.e., 21% oxygen) from post-natal day 4 (P4) to 14 (P14). Pups were then housed in room air. […] Flash electroretinograms were recorded at P29 to assess the retinal function. At P31, retinas were extracted, sectioned and stained with toluidine blue to measure the thicknesses of the different retinal layers.

Data set [4] shares this test system. Briefly: Retinal layer thickness in rat model of ROP (hyperoxia). In kind it is in vivo. The conditions noted are these: ROP animals; sildenafil 50 mg/kg per os twice daily P15 to P21; P31; p<0.05. As to the method: as §1
For data set [5] the following is noted: oral sildenafil; known; cited from earlier work.
Another data set deals with PDE6. The following applies: known; cited from earlier work.

In the case of `CCCc1nn(C)c2c(=O)[nH]c(-c3cc(S(=O)(=O)N4CCN(C)CC4)ccc3OCC)nc12` [sildenafil], the “incidence of animal deaths” value in data set [1] (HI group, sildenafil 2 mg/kg) is on record as 4/12; in data set [1] (HI group, sildenafil 10 mg/kg) it was 2/11; in data set [1] (HI group, sildenafil 50 mg/kg), 3/11; in data set [1] (sham groups), “no animals died”. Besides, the “neuronal number in the dentate gyrus” value in data set [2] (HI, 50 mg/kg, vs sham vehicle) was “significantly increases”. In data set [2] (HI, higher doses (10 mg/kg and 50 mg/kg)), the “number of activated microglia and reactive astrocytes in CA1 and dentate gyrus of the hippocampus” value is given as “significantly reduced”. The “vascular density in hippocampus” value in data set [2] (treatment groups vs control group) was “no changes in vascular density”. The “scotopic and photopic b-wave amplitudes” value in data set [3] is “improvement in scotopic and photopic b-wave amplitudes”. Further, the OPL thickness entry in data set [4] is “improved OPL thickness”. Also, the oral bioavailability result in data set [5] is “good oral bioavailability”. For the same molecule, in the data set on PDE6, the PDE6 inhibition result is listed as “inhibits PDE6, but with a reduced efficiency”.
